Assay results: ChEMBL document CHEMBL4627415, “Design and Structural Optimization of Dual FXR/PPARδ Activators” (J Med Chem, 2020)
Activity calls are given as the source filed them. The calls are words filed in the database; no cut-off is given here.

Key:
[1] = molecular target: T1, Bile acid receptor (Homo sapiens) (UniProt Q96RI1); test: Activation of human FXR LBD expressed in HEK293T cells assessed as induction of receptor activation at 20 uM incubated for 12 to 14 hrs by luciferase reporter gene assay; assay type: cell-based; conditions: HEK-293T
T1 sequence (whole entry): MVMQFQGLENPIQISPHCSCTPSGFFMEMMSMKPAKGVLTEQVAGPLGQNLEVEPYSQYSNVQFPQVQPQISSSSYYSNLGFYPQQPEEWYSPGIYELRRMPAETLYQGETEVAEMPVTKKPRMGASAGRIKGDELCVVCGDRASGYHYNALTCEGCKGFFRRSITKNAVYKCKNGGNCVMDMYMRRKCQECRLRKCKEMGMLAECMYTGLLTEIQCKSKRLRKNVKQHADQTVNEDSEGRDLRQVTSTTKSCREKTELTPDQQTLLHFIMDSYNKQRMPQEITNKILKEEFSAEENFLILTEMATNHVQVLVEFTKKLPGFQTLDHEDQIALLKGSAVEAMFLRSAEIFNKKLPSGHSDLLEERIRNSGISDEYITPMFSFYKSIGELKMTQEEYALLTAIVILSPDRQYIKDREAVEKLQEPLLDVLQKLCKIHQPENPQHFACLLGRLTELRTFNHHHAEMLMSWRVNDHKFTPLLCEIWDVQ

[2] = molecular target: T2, Peroxisome proliferator-activated receptor delta (Homo sapiens, UniProt Q03181); test: Activation of human PPAR-delta LBD expressed in HEK293T cells assessed as induction of receptor activation incubated for 12 to 14 hrs by luciferase reporter gene assay; assay type: cell-based, HEK-293T
T2 sequence (Q03181 whole entry): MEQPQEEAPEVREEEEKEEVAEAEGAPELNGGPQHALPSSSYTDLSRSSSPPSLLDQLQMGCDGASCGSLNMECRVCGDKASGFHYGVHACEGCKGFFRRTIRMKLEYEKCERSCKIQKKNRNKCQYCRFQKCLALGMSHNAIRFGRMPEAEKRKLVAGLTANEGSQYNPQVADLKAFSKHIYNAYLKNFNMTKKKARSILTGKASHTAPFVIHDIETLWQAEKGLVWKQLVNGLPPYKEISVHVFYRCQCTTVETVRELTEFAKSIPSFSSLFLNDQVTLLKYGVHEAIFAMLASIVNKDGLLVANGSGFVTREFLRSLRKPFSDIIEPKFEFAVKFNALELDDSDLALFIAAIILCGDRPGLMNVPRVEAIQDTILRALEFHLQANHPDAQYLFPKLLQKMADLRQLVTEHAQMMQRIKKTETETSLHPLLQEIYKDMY

[3] = molecular target: T3, Peroxisome proliferator-activated receptor delta (Homo sapiens) (UniProt Q03181); test: Activation of human PPAR-delta LBD expressed in HEK293T cells assessed as induction of receptor activation at 1 uM incubated for 12 to 14 hrs by luciferase reporter gene assay relative to L165,041; assay type: cell-based; conditions: HEK-293T
T3 sequence (whole entry): T2 sequence (Q03181 whole entry)

[4] = molecular target: T1, Bile acid receptor (Homo sapiens); test: Activation of human FXR LBD expressed in HEK293T cells assessed as induction of receptor activation at 30 uM incubated for 12 to 14 hrs by luciferase reporter gene assay; assay type: cell-based; conditions: HEK-293T
[5] = molecular target: T3, Peroxisome proliferator-activated receptor delta (Homo sapiens); test: Activation of human PPAR-delta LBD expressed in HEK293T cells assessed as induction of receptor activation at 1 uM incubated for 12 to 14 hrs by luciferase reporter gene assay; assay type: cell-based; conditions: HEK-293T
Bile acid receptor = molecular target: T4, Bile acid receptor (Homo sapiens, UniProt Q96RI1); test: Activation of human FXR LBD expressed in HEK293T cells assessed as induction of receptor activation incubated for 12 to 14 hrs by luciferase reporter gene assay; assay type: cell-based, HEK-293T
T4 sequence (Q96RI1 whole entry): T1 sequence (whole entry)

[6] = molecular target: T1, Bile acid receptor (Homo sapiens); test: Activation of human FXR LBD expressed in HEK293T cells assessed as induction of receptor activation at 1 uM incubated for 12 to 14 hrs by luciferase reporter gene assay relative to GW4064; assay type: cell-based; conditions: HEK-293T
[7] = molecular target: T3, Peroxisome proliferator-activated receptor delta (Homo sapiens); test: Activation of human PPAR-delta LBD expressed in HEK293T cells assessed as induction of receptor activation up to 10 uM incubated for 12 to 14 hrs by luciferase reporter gene assay; assay type: cell-based; conditions: HEK-293T
[8] = Aqueous solubility in pH 8 buffer by HPLC analysis; assay type: physicochemical
[9] = Stability in Sprague-Dawley rat liver microsomes assessed as remaining parent compound level at 10 uM presence of NADPH regenerating system by HPLC analysis; assay type: ADME, Microsome; conditions: read-out: Stability
HepG2 = test: Toxicity in human HepG2 cells assessed as reduction in cell viability up to 100 uM incubated for 48 hrs by WST1 assay; assay type: cell-based; conditions: hepg2, 48 h
[10] = molecular target: T1, Bile acid receptor (Homo sapiens); test: Activation of human FXR LBD expressed in HEK293T cells assessed as induction of receptor activation at 1 uM incubated for 12 to 14 hrs by luciferase reporter gene assay; conditions: HEK-293T
[11] = molecular target: T3, Peroxisome proliferator-activated receptor delta (Homo sapiens); test: Activation of human PPAR-delta LBD expressed in HEK293T cells assessed as induction of receptor activation at 30 uM incubated for 12 to 14 hrs by luciferase reporter gene assay; assay type: cell-based; conditions: HEK-293T
[12] = molecular target: T3, Peroxisome proliferator-activated receptor delta (Homo sapiens); test: Activation of human PPAR-delta LBD expressed in HEK293T cells assessed as induction of receptor activation at 20 uM incubated for 12 to 14 hrs by luciferase reporter gene assay; assay type: cell-based; conditions: HEK-293T

Structure (SMILES)	EC50 [2]	%max [3]	EC50 (Bile acid receptor)	%max [6]	further results
CC(C)c1onc(-c2ccccc2)c1COc1ccc(COc2ccc(CCC(=O)O)cc2)cc1	11 µM	32%	–	–	Activity [1]: inactive
CC(C)c1onc(-c2ccccc2)c1COc1ccc(COc2cccc(C(=O)O)c2)cc1	> 30 µM	–	–	–	Activity [4]: inactive
CCCc1c(OCCCOc2ccc(OCC(=O)O)cc2)ccc(C(C)=O)c1O	–	–	–	–	Activity [5]: Active
CC(C)c1onc(-c2ccccc2Cl)c1COc1ccc(COc2ccc(OCC(=O)O)cc2)cc1	7.2 µM	15%	4.7 µM	17%	–
CC(C)c1onc(-c2c(Cl)cccc2Cl)c1COc1ccc(CNc2ccc(CC(=O)O)cc2)cc1	3.6 µM	15%	1.6 µM	29%	–
CC(C)c1onc(-c2c(Cl)cccc2Cl)c1COc1ccc(COc2ccc(CC(=O)O)cc2)cc1	3.1 µM	17%	2 µM	37%	–
CC(C)c1onc(-c2ccccc2)c1COc1ccc(COc2ccc(CC(=O)O)cc2)cc1	4.3 µM	54%	11 µM	11%	–
CC(C)c1onc(-c2c(Cl)cccc2Cl)c1COc1ccc(/C=C/c2cccc(C(=O)O)c2)c(Cl)c1	–	–	–	–	Activity [7]: inactive; solubility [8]: < 0.1 µg/mL; remaining at 10 µM [9]: 10%; Activity (HepG2): Non-Toxic; Activity [10]: Active
Cc1onc(-c2ccccc2)c1COc1ccc(CCCC(=O)O)cc1	–	–	–	–	Activity [4]: inactive; Activity [11]: inactive
Cc1cc(NCc2ccc(OCc3c(-c4c(Cl)cccc4Cl)noc3C(C)C)cc2)ccc1CC(=O)O	9 µM	15%	1.2 µM	37%	–
CC(C)c1onc(-c2ccccc2)c1COc1ccc(CCCC(=O)O)cc1	0.9 µM	8.7%	31 µM	11%	–
CC(C)c1onc(-c2ccccc2Cl)c1COc1ccc(CCCC(=O)O)cc1	0.8 µM	9%	3.8 µM	16%	–
CC(C)c1onc(-c2ccccc2Cl)c1COc1ccc(COc2ccc(CC(=O)O)cc2)cc1	2 µM	23%	2.5 µM	9%	–
CC(C)c1onc(-c2ccccc2)c1COc1ccc(CCCCC(=O)O)cc1	> 30 µM	–	> 30 µM	–	–
Cc1cccc(C)c1-c1noc(C(C)C)c1COc1ccc(CCCC(=O)O)cc1	–	–	7.7 µM	15%	Activity [11]: inactive
CC(C)c1onc(-c2ccccc2)c1COc1ccc(CCCCCC(=O)O)cc1	> 10 µM	–	–	–	Activity [1]: inactive
CC(C)c1onc(-c2ccccc2Cl)c1COc1ccc(COc2ccc(C(C)(C)C(=O)O)cc2)cc1	–	–	–	–	Activity [1]: inactive; Activity [12]: inactive
CC(C)c1onc(-c2ccccc2)c1COc1ccc(COc2ccc(C(=O)O)cc2)cc1	> 30 µM	–	2.3 µM	5.1%	–
CC(C)c1onc(-c2c(Cl)cccc2Cl)c1COc1ccc(COc2ccc(CC(=O)O)cc2)c(Cl)c1	1.8 µM	15%	0.8 µM	117%	–
CC(C)c1onc(-c2ccccc2C(F)(F)F)c1COc1ccc(CCCC(=O)O)cc1	> 30 µM	–	4.4 µM	37%	–
CC(C)c1onc(-c2c(Cl)cccc2Cl)c1COc1ccc(CCCC(=O)O)cc1	0.7 µM	15%	6 µM	51%	–
CC(C)c1onc(-c2ccccc2)c1COc1ccc(Oc2ccc(C(=O)O)cc2)cc1	–	–	11 µM	13%	Activity [11]: inactive
